# Measurements as given in paper PMC8307317, “Point-Substitution of Phenylalanine Residues of 26RFa Neuropeptide: A Structure-Activity Relationship Study” (Molecules, 2021).
# pEC50: −log10 of the molar value. Like-named read-outs stand apart in the source and are kept apart here. Non-standard residues stand in square brackets, D forms with d. Residues, ends and D or L forms follow the SMILES beside them. ξ: configuration not given here. Phe(4-NO2) = N[C@@H](Cc1ccc([N+](=O)[O-])cc1)C(=O)O; Phe(4-tBu) = CC(C)(C)c1ccc(C[C@H](N)C(=O)O)cc1; Phe(4-Cl) = N[C@@H](Cc1ccc(Cl)cc1)C(=O)O; 2Nal = N[C@@H](Cc1ccc2ccccc2c1)C(=O)O; NMeF = CN[C@@H](Cc1ccccc1)C(=O)O; Tic = O=C(O)[C@@H]1Cc2ccccc2CN1; 2Thi = N[C@@H](Cc1cccs1)C(=O)O; ξPhg = NC(C(=O)O)c1ccccc1
# Target: T1, human QRFPR (hQRFPR) (Homo sapiens, UniProt Q96P65)
# T1 construct: expressed in transfected cells; host or cells: CHO cells, stably transfected with hQRFPR (G418 selection) and Gα16 (hygromycin B selection)
# T1 sequence (Q96P65 1-431): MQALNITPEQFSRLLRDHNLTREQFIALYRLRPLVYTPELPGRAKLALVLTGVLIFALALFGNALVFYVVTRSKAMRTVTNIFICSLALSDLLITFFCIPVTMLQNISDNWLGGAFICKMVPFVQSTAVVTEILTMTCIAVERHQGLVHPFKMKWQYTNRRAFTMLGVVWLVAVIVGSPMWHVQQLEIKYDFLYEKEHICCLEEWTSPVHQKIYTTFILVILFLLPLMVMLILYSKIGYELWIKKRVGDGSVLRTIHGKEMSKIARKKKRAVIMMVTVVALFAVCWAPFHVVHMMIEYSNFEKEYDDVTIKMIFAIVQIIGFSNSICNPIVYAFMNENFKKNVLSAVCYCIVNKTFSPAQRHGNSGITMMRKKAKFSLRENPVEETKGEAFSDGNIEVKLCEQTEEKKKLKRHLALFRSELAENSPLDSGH
# Test: Calcium mobilization assay, agonist mode ([Ca2+]i in Gα16-hQRFPR-transfected CHO cells)
# Assay type: cell-based
# Method: Stably transfected hQRFPR CHO cells were obtained as previously described. The cells were maintained in F-12 nutrient mixture (Ham-F12) medium supplemented with 10% fetal bovine serum, 2 mM glutamine, and penicillin-streptomycin. Expression of Gα16 cells was maintained using selection antibiotic hygromycin B (200 µg/mL) and that of hQRFPR using geneticin G418 (500 µg/mL) (Life Technologies, Villebon-Sur-Yvette, France) in a humidified 5% CO2 atmosphere at 37 °C.
# Changes in intracellular Ca^2+ concentrations induced by 26RFa(20–26) analogs in CHO-Gα16-hQRFPR-transfected cells were measured on a benchtop scanning fluorometer Flexstation III (Molecular Devices, Sunnyvale, CA, USA) as previously described. Briefly, 96-well assay black plates with clear bottoms (Corning international, Avon, France) were seeded at a density of 40,000 cells/well 24 h prior to assay. For profiling agonistic experiments, cells were loaded with 2 µM Fluo-4 acetoxymethyl ester (AM) (Invitrogen) for 1 h in the presence of 0.01% pluronic acid, washed thrice, and incubated for 30 min with standard HBSS containing 2.5 mM probenecid and 5 mM HEPES. Compounds to be tested were added at final concentrations ranging from 10^−11 to 10^−5 M in HBSS, and the fluorescence intensity was measured during 3 min. To evaluate the antagonistic potency of the test compounds, cells were incubated with each compound over 15 min after Fluo-4 AM loading. Then, during fluorescence recording, a pulse of 26RFa was administered at a final concentration of 10^−7 M. After subtraction of the mean fluorescence background, the baseline was normalized to 100%. Fluorescence peak values were determined for each concentration of compound.
# Calcium experiments were performed in triplicate, and data, expressed as mean ± SEM of at least three distinct experiments, were analyzed with the Prism 8.0 software (Graphpad Software, San Diego, CA, USA). EC50 and the IC50 values were determined from concentration–response curves using a sigmoidal dose–response fit with variable slope from at least three independent determinations. Differences between 26RFa(20–26) and analog activities were analyzed by the Mann–Whitney test. p values < 0.05 were considered significant.
# [1] = [Ca2+]i mobilization in Gα16-hQRFPR-transfected CHO cells, mean of at least three independent experiments performed in triplicate, read-out: EC50
# [2] = single prototype curve, triplicate, basal [Ca2+]i mobilization, read-out: EC50 calculated from representative dose–response curves (Figure 3)
Structure (SMILES),pEC50 [1],pEC50 [2],"pEC50 ([Ca2+]i mobilization, N-methylated analogs, read-out: EC50)"
"N=C(N)NCCC[C@H](NC(=O)[C@H](Cc1ccccc1)NC(=O)[C@H](CO)NC(=O)[C@H](Cc1ccccc1)NC(=O)CNC(=O)CN)C(=O)N[C@@H](Cc1cccs1)C(N)=O [Compound 4, [Thi^26]26RFa(20–26)] (H-GGFSFR[2Thi]-NH2)",5.14,,
"N=C(N)NCCC[C@H](NC(=O)[C@H](Cc1ccccc1)NC(=O)[C@H](CO)NC(=O)[C@H](Cc1ccc2ccccc2c1)NC(=O)CNC(=O)CN)C(=O)N[C@@H](Cc1ccccc1)C(N)=O [Compound 5, [2Nal^22]26RFa(20–26)] (H-GG[2Nal]SFRF-NH2)",5.94,,
"N=C(N)NCCC[C@H](NC(=O)[C@H](Cc1ccc2ccccc2c1)NC(=O)[C@H](CO)NC(=O)[C@H](Cc1ccccc1)NC(=O)CNC(=O)CN)C(=O)N[C@@H](Cc1ccccc1)C(N)=O [Compound 6, [2Nal^24]26RFa(20–26)] (H-GGFS[2Nal]RF-NH2)",4.82,,
"N=C(N)NCCC[C@H](NC(=O)[C@H](Cc1ccccc1)NC(=O)[C@H](CO)NC(=O)[C@H](Cc1ccccc1)NC(=O)CNC(=O)CN)C(=O)N[C@@H](Cc1ccc2ccccc2c1)C(N)=O [Compound 7, [2Nal^26]26RFa(20–26)] (H-GGFSFR[2Nal]-NH2)",5.42,,
"CC(C)(C)c1ccc(C[C@H](NC(=O)[C@H](CO)NC(=O)[C@H](Cc2ccccc2)NC(=O)CNC(=O)CN)C(=O)N[C@@H](CCCNC(=N)N)C(=O)N[C@@H](Cc2ccccc2)C(N)=O)cc1 [Compound 12, [ptBuPhe^24]26RFa(20–26)] (H-GGFS[Phe(4-tBu)]RF-NH2)",< 5.00,,
"N=C(N)NCCC[C@H](NC(=O)[C@H](Cc1ccccc1)NC(=O)[C@H](CO)NC(=O)[C@H](Cc1ccccc1)NC(=O)CNC(=O)CN)C(=O)N[C@@H](Cc1ccc(Cl)cc1)C(N)=O [Compound 16, [Pcp^26]26RFa(20–26)] (H-GGFSFR[Phe(4-Cl)]-NH2)",6.34,6.38,
"N=C(N)NCCC[C@H](NC(=O)[C@H](Cc1ccccc1)NC(=O)[C@H](CO)NC(=O)[C@H](Cc1ccccc1)NC(=O)CNC(=O)CN)C(=O)N[C@@H](Cc1ccc([N+](=O)[O-])cc1)C(N)=O [Compound 19, [pNO2Phe^26]26RFa(20–26)] (H-GGFSFR[Phe(4-NO2)]-NH2)",6.31,6.31,
"N=C(N)NCCC[C@H](NC(=O)[C@H](Cc1ccccc1)NC(=O)[C@H](CO)NC(=O)C(NC(=O)CNC(=O)CN)c1ccccc1)C(=O)N[C@@H](Cc1ccccc1)C(N)=O (stereo partly drawn) [Compound 20, [Phg^22]26RFa(20–26)] (H-GG[ξPhg]SFRF-NH2)",5.30,,
"N=C(N)NCCC[C@H](NC(=O)C(NC(=O)[C@H](CO)NC(=O)[C@H](Cc1ccccc1)NC(=O)CNC(=O)CN)c1ccccc1)C(=O)N[C@@H](Cc1ccccc1)C(N)=O (stereo partly drawn) [Compound 22, [Phg^24]26RFa(20–26)] (H-GGFS[ξPhg]RF-NH2)",< 5.00,,
"N=C(N)NCCC[C@H](NC(=O)[C@H](Cc1ccccc1)NC(=O)[C@H](CO)NC(=O)[C@H](Cc1ccccc1)NC(=O)CNC(=O)CN)C(=O)NC(C(N)=O)c1ccccc1 (stereo partly drawn) [Compound 24, [Phg^26]26RFa(20–26)] (H-GGFSFR[ξPhg]-NH2)",< 5.00,,
"CN(C(=O)[C@H](CO)NC(=O)[C@H](Cc1ccccc1)NC(=O)CNC(=O)CN)[C@@H](Cc1ccccc1)C(=O)N[C@@H](CCCNC(=N)N)C(=O)N[C@@H](Cc1ccccc1)C(N)=O [Compound 26, [NMePhe^24]26RFa(20–26)] (H-GGFS[NMeF]RF-NH2)",5.87,,
"CN(C(=O)[C@H](CCCNC(=N)N)NC(=O)[C@H](Cc1ccccc1)NC(=O)[C@H](CO)NC(=O)[C@H](Cc1ccccc1)NC(=O)CNC(=O)CN)[C@@H](Cc1ccccc1)C(N)=O [Compound 27, [NMePhe^26]26RFa(20–26)] (H-GGFSFR[NMeF]-NH2)",< 5.00,,
"N=C(N)NCCC[C@H](NC(=O)[C@H](Cc1ccccc1)NC(=O)[C@H](CO)NC(=O)[C@@H]1Cc2ccccc2CN1C(=O)CNC(=O)CN)C(=O)N[C@@H](Cc1ccccc1)C(N)=O [Compound 28, [Tic^22]26RFa(20–26)] (H-GG[Tic]SFRF-NH2)",6.49,6.52,
"N=C(N)NCCC[C@H](NC(=O)[C@@H]1Cc2ccccc2CN1C(=O)[C@H](CO)NC(=O)[C@H](Cc1ccccc1)NC(=O)CNC(=O)CN)C(=O)N[C@@H](Cc1ccccc1)C(N)=O [Compound 29, [Tic^24]26RFa(20–26)] (H-GGFS[Tic]RF-NH2)",< 5.00,,
"N=C(N)NCCC[C@H](NC(=O)[C@H](Cc1ccccc1)NC(=O)[C@H](CO)NC(=O)[C@H](Cc1ccccc1)NC(=O)CNC(=O)CN)C(=O)N1Cc2ccccc2C[C@H]1C(N)=O [Compound 30, [Tic^26]26RFa(20–26)] (H-GGFSFR[Tic]-NH2)",5.11,,

# Now from value to compound:
pEC50 [1],pEC50 [2],"pEC50 ([Ca2+]i mobilization, N-methylated analogs, read-out: EC50)",Structure (SMILES)
5.50,,,"N=C(N)NCCC[C@H](NC(=O)[C@H](Cc1ccccc1)NC(=O)[C@H](CO)NC(=O)[C@H](Cc1cccs1)NC(=O)CNC(=O)CN)C(=O)N[C@@H](Cc1ccccc1)C(N)=O [Compound 2, [Thi^22]26RFa(20–26)] (H-GG[2Thi]SFRF-NH2)"
5.60,,,"N=C(N)NCCC[C@H](NC(=O)[C@H](Cc1cccs1)NC(=O)[C@H](CO)NC(=O)[C@H](Cc1ccccc1)NC(=O)CNC(=O)CN)C(=O)N[C@@H](Cc1ccccc1)C(N)=O [Compound 3, [Thi^24]26RFa(20–26)] (H-GGFS[2Thi]RF-NH2)"
5.98,5.97,,"CC(C)(C)c1ccc(C[C@H](NC(=O)[C@H](CCCNC(=N)N)NC(=O)[C@H](Cc2ccccc2)NC(=O)[C@H](CO)NC(=O)[C@H](Cc2ccccc2)NC(=O)CNC(=O)CN)C(N)=O)cc1 [Compound 13, [ptBuPhe^26]26RFa(20–26)] (H-GGFSFR[Phe(4-tBu)]-NH2)"
5.30,,,"N=C(N)NCCC[C@H](NC(=O)[C@H](Cc1ccccc1)NC(=O)[C@H](CO)NC(=O)[C@H](Cc1ccc(Cl)cc1)NC(=O)CNC(=O)CN)C(=O)N[C@@H](Cc1ccccc1)C(N)=O [Compound 14, [Pcp^22]26RFa(20–26)] (H-GG[Phe(4-Cl)]SFRF-NH2)"
6.07,,,"N=C(N)NCCC[C@H](NC(=O)[C@H](Cc1ccc(Cl)cc1)NC(=O)[C@H](CO)NC(=O)[C@H](Cc1ccccc1)NC(=O)CNC(=O)CN)C(=O)N[C@@H](Cc1ccccc1)C(N)=O [Compound 15, [Pcp^24]26RFa(20–26)] (H-GGFS[Phe(4-Cl)]RF-NH2)"
5.67,,,"N=C(N)NCCC[C@H](NC(=O)[C@H](Cc1ccccc1)NC(=O)[C@H](CO)NC(=O)[C@H](Cc1ccc([N+](=O)[O-])cc1)NC(=O)CNC(=O)CN)C(=O)N[C@@H](Cc1ccccc1)C(N)=O [Compound 17, [pNO2Phe^22]26RFa(20–26)] (H-GG[Phe(4-NO2)]SFRF-NH2)"
< 5.00,,,"N=C(N)NCCC[C@H](NC(=O)[C@H](Cc1ccc([N+](=O)[O-])cc1)NC(=O)[C@H](CO)NC(=O)[C@H](Cc1ccccc1)NC(=O)CNC(=O)CN)C(=O)N[C@@H](Cc1ccccc1)C(N)=O [Compound 18, [pNO2Phe^24]26RFa(20–26)] (H-GGFS[Phe(4-NO2)]RF-NH2)"
< 5.00,,,"N=C(N)NCCC[C@H](NC(=O)C(NC(=O)[C@H](CO)NC(=O)[C@H](Cc1ccccc1)NC(=O)CNC(=O)CN)c1ccccc1)C(=O)N[C@@H](Cc1ccccc1)C(N)=O (stereo partly drawn) [Compound 21, [Phg^24]26RFa(20–26)] (H-GGFS[ξPhg]RF-NH2)"
< 5.00,,,"N=C(N)NCCC[C@H](NC(=O)[C@H](Cc1ccccc1)NC(=O)[C@H](CO)NC(=O)[C@H](Cc1ccccc1)NC(=O)CNC(=O)CN)C(=O)NC(C(N)=O)c1ccccc1 (stereo partly drawn) [Compound 23, [Phg^26]26RFa(20–26)] (H-GGFSFR[ξPhg]-NH2)"
4.82,,< 5.00,"CN(C(=O)CNC(=O)CN)[C@@H](Cc1ccccc1)C(=O)N[C@@H](CO)C(=O)N[C@@H](Cc1ccccc1)C(=O)N[C@@H](CCCNC(=N)N)C(=O)N[C@@H](Cc1ccccc1)C(N)=O [Compound 25, [NMePhe^22]26RFa(20–26)] (H-GG[NMeF]SFRF-NH2)"
